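Compound exposure: 48 hours, 5 concentrations, 96-well plates. GI50 is the concentration that inhibits growth by half. TGI: total growth inhibition.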
What was measured:
Assay in all cases: NCI tumour cell line growth inhibition, 48 h
[1] = test system: HCC-2998 colon
[2] = test system: MOLT-4 leukemia
[3] = test system: HT29 colon
[4] = test system: U251 CNS
[5] = test system: HCT-15 colon
[6] = test system: P388 leukemia
[7] = test system: SNB-78 CNS
[8] = test system: HL-60(TB) leukemia
[9] = test system: UACC-257 melanoma
[10] = test system: IGROV1 ovarian
[11] = test system: HOP-92 NSCLC
[12] = test system: SF-539 CNS
[13] = test system: SNB-19 CNS
[14] = test system: NCI-H226 lung
[15] = test system: HCT-116 colon
[16] = test system: DLD-1 colon
[17] = test system: NCI-H460 lung
[18] = test system: UO-31 renal
[19] = test system: M19-MEL melanoma
[20] = test system: RPMI-8226 leukemia
[21] = test system: NCI-H522 lung
[22] = test system: DMS 114 small cell lung
[23] = test system: KM12 colon
[24] = test system: RXF 393 renal
[25] = test system: A498 renal
[26] = test system: MCF7 breast
[27] = test system: A549 NSCLC
[28] = test system: DMS 273 small cell lung
[29] = test system: COLO 205 colon
[30] = test system: K-562 leukemia
[31] = test system: SK-OV-3 ovarian
[32] = test system: SF-268 CNS
[33] = test system: HOP-18 NSCLC
[34] = test system: EKVX NSCLC
[35] = test system: SN12K1 renal
[36] = test system: SNB-75 CNS
[37] = test system: LOX IMVI melanoma
[38] = test system: SK-MEL-2 melanoma
[39] = test system: OVCAR-4 ovarian
[40] = test system: SW-620 colon
[41] = test system: CAKI-1 renal
[42] = test system: KM20L2 colon
[43] = test system: NCI-H23 lung
[44] = test system: SK-MEL-5 melanoma
[45] = test system: OVCAR-8 ovarian
[46] = test system: CCRF-CEM leukemia
[47] = test system: P388/ADR leukemia
[48] = test system: NCI/ADR-RES ovarian
[49] = test system: OVCAR-5 ovarian
[50] = test system: OVCAR-3 ovarian
[51] = test system: MALME-3M melanoma
[52] = test system: HOP-62 NSCLC
[53] = test system: SF-295 CNS
[54] = test system: XF 498 CNS
[55] = test system: UACC-62 melanoma
[56] = test system: SK-MEL-28 melanoma
[57] = test system: SN12C renal
[58] = test system: 786-0 renal
[59] = test system: SR leukemia
[60] = test system: TK-10 renal
[61] = test system: ACHN renal
[62] = test system: M14 melanoma
[63] = test system: LXFL 529 NSCLC
[64] = test system: RXF-631 renal

## Cc1[nH]c(=O)[nH]c(=O)c1/C=C/C(=O)O
[1]
  TGI: > 1000 µM
[2]
  TGI: > 1000 µM
[3]
  TGI: > 1000 µM
[4]
  TGI: > 1000 µM
[5]
  TGI: > 1000 µM
[6]
  GI50: > 1000 µM
  TGI: > 1000 µM
[7]
  TGI: > 1000 µM
[8]
  TGI: > 1000 µM
[9]
  TGI: > 1000 µM
[10]
  TGI: > 1000 µM
[11]
  TGI: 62.6 µM
[12]
  TGI: > 1000 µM
[13]
  TGI: > 1000 µM
[14]
  TGI: > 1000 µM
[15]
  TGI: > 1000 µM
[16]
  TGI: > 1000 µM
[17]
  TGI: > 1000 µM
[18]
  TGI: > 1000 µM
[19]
  TGI: > 1000 µM
[20]
  TGI: > 1000 µM
[21]
  TGI: > 1000 µM
[22]
  TGI: > 1000 µM
[23]
  TGI: > 1000 µM
[24]
  TGI: > 1000 µM
[25]
  TGI: > 1000 µM
[26]
  TGI: > 1000 µM
[27]
  TGI: > 1000 µM
[28]
  TGI: > 1000 µM
[29]
  TGI: > 1000 µM
[30]
  TGI: > 1000 µM
[31]
  TGI: > 1000 µM
[32]
  TGI: > 1000 µM
[33]
  TGI: > 1000 µM
[34]
  TGI: > 1000 µM
[35]
  TGI: > 1000 µM
[36]
  TGI: > 1000 µM
[37]
  TGI: > 1000 µM
[38]
  TGI: > 1000 µM
[39]
  TGI: > 1000 µM
[40]
  TGI: > 1000 µM
[41]
  TGI: > 1000 µM
[42]
  TGI: > 1000 µM
[43]
  TGI: > 1000 µM
[44]
  TGI: > 1000 µM
[45]
  TGI: > 1000 µM
[46]
  TGI: > 1000 µM
[47]
  TGI: > 1000 µM
[48]
  TGI: > 1000 µM
[49]
  TGI: > 1000 µM
[50]
  TGI: > 1000 µM
[51]
  TGI: > 1000 µM
[52]
  TGI: > 1000 µM
[53]
  TGI: > 1000 µM
[54]
  TGI: > 1000 µM
[55]
  TGI: > 1000 µM
[56]
  TGI: > 1000 µM
[57]
  TGI: > 1000 µM

## CCCCOC(=O)NC(=O)c1cn(CCCOC(=O)NCCCCCCNC(=O)OCCCn2cc(C(=O)NC(=O)OCCCC)c(=O)[nH]c2=O)c(=O)[nH]c1=O
[1]
  TGI: > 100 µM
[3]
  TGI: > 100 µM
[4]
  TGI: > 100 µM
[5]
  TGI: > 100 µM
[58]
  TGI: > 100 µM
[7]
  TGI: > 100 µM
[8]
  TGI: > 100 µM
[9]
  TGI: > 100 µM
[10]
  TGI: > 100 µM
[11]
  TGI: > 100 µM
[12]
  TGI: > 100 µM
[13]
  TGI: > 100 µM
[15]
  TGI: > 100 µM
[16]
  TGI: > 100 µM
[17]
  TGI: > 100 µM
[18]
  TGI: > 100 µM
[19]
  TGI: > 100 µM
[20]
  TGI: > 100 µM
[21]
  TGI: > 100 µM
[22]
  TGI: > 100 µM
[23]
  TGI: > 100 µM
[24]
  TGI: > 100 µM
[25]
  TGI: > 100 µM
[27]
  TGI: > 100 µM
[28]
  TGI: > 100 µM
[29]
  TGI: > 100 µM
[30]
  TGI: > 100 µM
[59]
  TGI: > 100 µM
[31]
  TGI: > 100 µM
[60]
  TGI: > 100 µM
[32]
  TGI: > 100 µM
[33]
  TGI: > 100 µM
[34]
  TGI: > 100 µM
[36]
  TGI: > 100 µM
[37]
  TGI: > 100 µM
[38]
  TGI: > 100 µM
[39]
  TGI: > 100 µM
[40]
  TGI: > 100 µM
[61]
  TGI: > 100 µM
[42]
  TGI: > 100 µM
[43]
  TGI: > 100 µM
[44]
  TGI: > 100 µM
[45]
  TGI: > 100 µM
[49]
  TGI: > 100 µM
[62]
  TGI: > 100 µM
[50]
  TGI: > 100 µM
[63]
  TGI: > 100 µM
[51]
  TGI: > 100 µM
[52]
  TGI: > 100 µM
[53]
  TGI: > 100 µM
[64]
  TGI: > 100 µM
[54]
  TGI: 93.1 µM
[55]
  TGI: > 100 µM
[56]
  TGI: > 100 µM
[57]
  TGI: > 100 µM

— PubChem BioAssay (NCI)
